Measurements as given in patent publication US4292317A, “1,4-Dihydro-quinoline-3-carboxylic acid derivatives, process for their preparation and compositions containing them” (Laboratorie Roger Bellon, priority 1977, dated 1981).
Converted amounts (≈) assume the structure as drawn.

Tests used:
Format in all cases: cell-based
Salm. typhi 0901 = assay: microbe, parasite or virus in culture; details: Salmonella enterica, 18 h; Table III; Salm. typhi 0901
Description: (§1) After sterilisation at 120° C., the pH was 6.8.
(§2) The minimum inhibitory concentrations (M.I.C.) were determined by dilution of the test compounds in this mixture, the concentration ranging from 0.05 to 100 μg/cm^3 in a geometric progression with a factor of 2.
(§3) The inoculation of the dishes was carried out by means of a multiple inoculator with 10^-3 dilutions of 18 hour old broth cultures.
(§4) The dishes were placed in an oven at 37° C. and the readings were taken afer an incubation time of 18 hours. The M.I.C. was taken as the lowest concentration which inhibited a culture.

Bord. bronchis. 4.617 = assay: M.I.C. in vitro, nutrient agar dilution; details: 18 h; Table III; Bord. bronchis. 4.617; read-out: M.I.C.
Description: as §1, §2, §3, §4

B. subtilis = assay: M.I.C. in vitro, nutrient agar dilution; details: Bacillus subtilis, 18 h; Table III; B. Subtilis; read-out: M.I.C.
Description: as §1, §2, §3, §4

Pr. morganii A.236 = assay: M.I.C. in vitro, nutrient agar dilution; details: Morganella morganii, 18 h; Table III; Pr. morganii A. 236; read-out: M.I.C.
Description: as §1, §2, §3, §4

Staph. 209 P = assay: M.I.C. in vitro, nutrient agar dilution; details: 18 h; Table III; Staph. 209 P; read-out: M.I.C.
Description: as §1, §2, §3, §4

Staph. 9.144 = assay: M.I.C. in vitro, nutrient agar dilution; details: 18 h; Table III; Staph. 9.144; read-out: M.I.C.
Description: as §1, §2, §3, §4

S. enteritidis Danysz = assay: M.I.C. in vitro, nutrient agar dilution; details: Salmonella enterica, 18 h; Table III; S. enteritidis Danysz; read-out: M.I.C.
Description: as §1, §2, §3, §4

Pr. mirabilis Nig = assay: M.I.C. in vitro, nutrient agar dilution; details: Proteus mirabilis, 18 h; Table III; Pr. mirabilis Nig; read-out: M.I.C.
Description: as §1, §2, §3, §4

Ps. aeruginosa 72.345 = assay: M.I.C. in vitro, nutrient agar dilution; details: Pseudomonas aeruginosa, 18 h; Table III; Pd. aeruginosa 72.345; read-out: M.I.C.
Description: as §1, §2, §3, §4

Providentia 0223 = assay: M.I.C. in vitro, nutrient agar dilution; details: 18 h; Table III; Providentia 0223; read-out: M.I.C.
Description: as §1, §2, §3, §4

Strepto D.M. 19 = assay: M.I.C. in vitro, nutrient agar dilution; details: 18 h; Table III; Strepto D.M. 19; read-out: M.I.C.
Description: as §1, §2, §3, §4

Ps. aeruginosa A.22 = assay: M.I.C. in vitro, nutrient agar dilution; details: Pseudomonas aeruginosa, 18 h; Table III; Ps. aeruginosa A.22; read-out: M.I.C.
Description: as §1, §2, §3, §4

Serratia = assay: M.I.C. in vitro, nutrient agar dilution; details: 18 h, Table III, read-out: M.I.C.
Description: as §1, §2, §3, §4

Klebs. pneum. 10.031 = assay: M.I.C. in vitro, nutrient agar dilution; details: 18 h; Table III; Klebs. pneum. 10.031; read-out: M.I.C.
Description: as §1, §2, §3, §4

Pr. vulgaris 12-53 = assay: M.I.C. in vitro, nutrient agar dilution; details: Proteus vulgaris, 1253, 18 h; Table III; Pr. vulgaris 12-53; read-out: M.I.C.
Description: as §1, §2, §3, §4

Sh. sonnei I.P.S. = assay: M.I.C. in vitro, nutrient agar dilution; details: Shigella sonnei, 18 h; Table III; Sh. sonnei I.P.S.; read-out: M.I.C.
Description: as §1, §2, §3, §4

Esch. coli 95 I.S.M. = assay: M.I.C. in vitro, nutrient agar dilution; details: Escherichia coli, 18 h; Table III; Esch. coli 95 I.S.M.; read-out: M.I.C.
Description: as §1, §2, §3, §4

Arizona 6.211 = assay: M.I.C. in vitro, nutrient agar dilution; details: 18 h; Table III; Arizona 6.211; read-out: M.I.C.
Description: as §1, §2, §3, §4

Esch. coli 54.127 O.M.S. = assay: M.I.C. in vitro, nutrient agar dilution; details: Escherichia coli, 18 h; Table III; Esch. coli 54.127 O.M.S.; read-out: M.I.C.
Description: as §1, §2, §3, §4

Strepto A 561 = assay: M.I.C. in vitro, nutrient agar dilution; details: 18 h; Table III; Strepto A 561
Description: as §1, §2, §3, §4

Esch. coli 111 B4 = assay: M.I.C. in vitro, nutrient agar dilution; details: Escherichia coli, 18 h; Table III; Esch. coli 111 B4
Description: as §1, §2, §3, §4

S. oranienburg 1066 = assay: M.I.C. in vitro, nutrient agar dilution; details: Salmonella enterica, 18 h; Table III; S. oranienburg 1066; read-out: M.I.C.
Description: as §1, §2, §3, §4

Structure (SMILES)	MIC (Salm. typhi 0901)	MIC (Bord. bronchis. 4.617)	MIC (B. subtilis)	MIC (Pr. morganii A.236)	MIC (Staph. 209 P)	MIC (Staph. 9.144)	MIC (S. enteritidis Danysz)	MIC (Pr. mirabilis Nig)	MIC (Ps. aeruginosa 72.345)	MIC (Providentia 0223)	MIC (Strepto D.M. 19)	MIC (Ps. aeruginosa A.22)	MIC (Serratia)	MIC (Klebs. pneum. 10.031)	MIC (Pr. vulgaris 12-53)	MIC (Sh. sonnei I.P.S.)	MIC (Esch. coli 95 I.S.M.)	MIC (Arizona 6.211)	MIC (Esch. coli 54.127 O.M.S.)	MIC (Strepto A 561)	also measured
CN1CCN(c2cc3c(cc2F)c(=O)c(C(=O)O)cn3C)CC1 [Example 31, 6-Fluoro-1-methyl-7-(4-methylpiperazinyl)-4-oxo-1,4-dihydro-quinoline-3-carboxylic acid]	0.4 µg/mL (≈ 1.25 µM)	6.25 µg/mL (≈ 19.6 µM)	0.8 µg/mL (≈ 2.51 µM)	0.2 µg/mL (≈ 0.626 µM)	0.4 µg/mL (≈ 1.25 µM)	0.4 µg/mL (≈ 1.25 µM)	0.4 µg/mL (≈ 1.25 µM)	0.4 µg/mL (≈ 1.25 µM)	1.6 µg/mL (≈ 5.01 µM)	0.8 to 1.6 µg/mL (≈ 2.51 to 5.01 µM)	3.1 to 6.2 µg/mL (≈ 9.71 to 19.4 µM)	1.6 µg/mL (≈ 5.01 µM)	0.2 µg/mL (≈ 0.626 µM)	0.8 µg/mL (≈ 2.51 µM)	0.2 µg/mL (≈ 0.626 µM)	0.2 to 0.4 µg/mL (≈ 0.626 to 1.25 µM)	0.1 µg/mL (≈ 0.313 µM)	0.2 to 0.4 µg/mL (≈ 0.626 to 1.25 µM)	0.8 µg/mL (≈ 2.51 µM)	12.5 µg/mL (≈ 39.1 µM)	MIC (Esch. coli 111 B4): 0.8 µg/mL (≈ 2.51 µM); MIC (S. oranienburg 1066): 6.2 to 12.5 µg/mL (≈ 19.4 to 39.1 µM)
Cn1cc(C(=O)O)c(=O)c2cc(F)c(N3CCNCC3)cc21 [Example 32, 6-fluoro-1-methyl-4-oxo-7-piperazinyl-1,4-dihydro-quinoline-3-carboxylic acid]	0.8 µg/mL (≈ 2.62 µM)	6.25 µg/mL (≈ 20.5 µM)	0.4 µg/mL (≈ 1.31 µM)	0.2 µg/mL (≈ 0.655 µM)	0.8 µg/mL (≈ 2.62 µM)	0.8 µg/mL (≈ 2.62 µM)	0.2 µg/mL (≈ 0.655 µM)	0.2 µg/mL (≈ 0.655 µM)	0.4 to 3.12 µg/mL (≈ 1.31 to 10.2 µM)	1.6 µg/mL (≈ 5.24 µM)	12.5 µg/mL (≈ 40.9 µM)	0.8 to 3.12 µg/mL (≈ 2.62 to 10.2 µM)	0.2 µg/mL (≈ 0.655 µM)	0.1 µg/mL (≈ 0.328 µM)	0.2 µg/mL (≈ 0.655 µM)	0.1 µg/mL (≈ 0.328 µM)	0.2 µg/mL (≈ 0.655 µM)	0.2 µg/mL (≈ 0.655 µM)	0.2 µg/mL (≈ 0.655 µM)	6.2 to 12.5 µg/mL (≈ 20.3 to 40.9 µM)	MIC (Esch. coli 111 B4): 0.2 µg/mL (≈ 0.655 µM); MIC (S. oranienburg 1066): 12.5 µg/mL (≈ 40.9 µM)
